Structures can show the parent of a compound that is named as a salt. Peptide text beside a SMILES is read from it.
Experiments:
[1] = test system: NCI-H292 lung cancer cells; assay: FDA drug screening, complete media vs cholesterol-free media with simvastatin (TABLE 2); format: cell-based, human; details: for Cholesterol-free media + simvastatin (0.04 μM) / Complete Media: NCI-H292 cells
[2] = test system: NCI-H292 lung cancer cells; assay: FDA drug screening, complete media vs cholesterol-free media without statin (TABLE 1); format: cell-based, human
[3] = drug in cholesterol-free media with simvastatin 0.04 μM
[4] = complete media vs cholesterol-free media + simvastatin (0.04 μM), […]
[5] = NCI-H292 cells, cholesterol-free media without statin
[6] = complete vs cholesterol-free media, […]
[7] = cholesterol-free media with simvastatin 0.04 μM, FDA drug library screen (TABLE 2)
[8] = complete media, FDA drug library screen (TABLE 2)
[9] = complete media minus cholesterol-free media + simvastatin (0.04 μM), […]
[10] = Complete minus Cholesterol-free, […]
[11] = NCI-H292 cells, cholesterol-free media without statin, FDA drug library screen
[12] = NCI-H292 cells, complete media, FDA drug library screen
[13] = cholesterol-free media with simvastatin 0.04 μM, cell growth value in FDA drug screen
[14] = complete media, cell growth value in FDA drug screen
[15] = complete media minus cholesterol-free media + simvastatin, >0 enhanced anti-cancer activity, about 0 neutral, <0 antagonist
[16] = complete vs cholesterol-free media, greater than 0 enhanced anti-cancer activity, about 0 neutral, below 0 antagonists
[17] = complete media vs cholesterol-free media + simvastatin (0.04 μM), >0 enhanced anti-cancer activity, about 0 neutral, <0 antagonist
[18] = complete media minus cholesterol-free media + simvastatin (0.04 μM), >0 enhanced anti-cancer activity, about 0 neutral, <0 antagonist
[19] = Complete minus Cholesterol-free, >0 enhanced anti-cancer activity, about 0 neutral, <0 antagonist
[20] = FDA library drug in cholesterol-free media with simvastatin 0.04 μM
[21] = FDA library drug in complete media
[22] = NCI-H292 cells in cholesterol-free media without statin
[23] = NCI-H292 cells in complete media
[24] = FDA drug library screen, cholesterol-free media with simvastatin 0.04 μM
[25] = FDA drug library screen, complete media
[26] = Complete minus Cholesterol-free, greater than 0 enhanced anti-cancer activity, about 0 neutral, below 0 antagonists
[27] = complete vs cholesterol-free media, >0 enhanced anti-cancer activity, about 0 neutral, <0 antagonist

Icatibant (acetate)
Cholesterol-free media + simvastatin (0.04 μM) [1, 3]: 1.025
Complete Media ([1]; drug in complete media): 0.7948
Difference [1, 4]: −0.23
Cholesterol-free [2, 5]: 1.121
Complete ([2]; NCI-H292 cells, complete media): 0.7693
Difference [2, 6]: −0.35

COC(=O)C[C@](O)(CCC(C)(C)O)C(=O)O[C@@H]1C(OC)=C[C@]23CCCN2CCc2cc4c(cc2[C@H]13)OCO4 [Harringtonine]
Cholesterol-free media + simvastatin (0.04 μM) [1, 7]: −0.01111
Complete Media [1, 8]: −0.002434
Difference [1, 9]: 0.01
Difference [2, 10]: −0.01
Cholesterol-free [2, 11]: 0.0181
Complete [2, 12]: 0.006818

COc1ccnc(C[S+]([O-])c2nc3cc(-n4cccc4)ccc3[nH]2)c1C (stereo not drawn) [Ilaprazole (sodium)]
Cholesterol-free media + simvastatin (0.04 μM) [1, 13]: 1.333
Complete Media [1, 14]: 1.428
Difference [1, 15]: 0.10
Cholesterol-free [2, 5]: 1.162
Complete ([2]; NCI-H292 cells, complete media): 0.7783
Difference [2, 16]: −0.38

CC(C)OC(=O)CCC/C=C\C[C@@H]1[C@@H](/C=C/C(F)(F)COc2ccccc2)[C@H](O)C[C@@H]1O [Tafluprost]
Cholesterol-free media + simvastatin (0.04 μM) [1, 3]: 1.261
Complete Media ([1]; drug in complete media): 1.095
Difference [1, 17]: −0.17
Difference ([2]; Complete minus Cholesterol-free, greater than 0 enhanced anti-cancer activity, about 0 neutral, below 0 antagonist): −0.18
Cholesterol-free ([2]; NCI-H292 cells, FDA drug library screen, cholesterol-free media without statin): 0.9541
Complete ([2]; NCI-H292 cells, FDA drug library screen, complete media): 0.7736

O=C1CC[C@@H](C(=O)N2CSC[C@H]2C(=O)O)N1 [Pidotimod] (HELM PEPTIDE1{[Glp].[O=C(O)[C@@H]1CSCN1[*:1]]}$$$$V2.0)
Cholesterol-free media + simvastatin (0.04 μM) [1, 7]: 1.016
Complete Media [1, 8]: 1.03
Difference [1, 18]: 0.01
Cholesterol-free [2, 5]: 1.383
Complete ([2]; NCI-H292 cells, complete media): 0.9708
Difference [2, 16]: −0.41

CNCCc1ccccn1 [Betahistine (dihydrochloride)]
Cholesterol-free media + simvastatin (0.04 μM) [1, 3]: 1.02
Complete Media ([1]; drug in complete media): 0.8007
Difference [1, 17]: −0.22
Cholesterol-free [2, 5]: 1.528
Complete ([2]; NCI-H292 cells, complete media): 1.139
Difference [2, 16]: −0.39

COC(=O)C[C@](O)(CCCC(C)(C)O)C(=O)O[C@@H]1C(OC)=C[C@]23CCCN2CCc2cc4c(cc2[C@H]13)OCO4 [Homoharringtonine]
Cholesterol-free media + simvastatin (0.04 μM) [1, 7]: 0.0331
Complete Media [1, 8]: 0.0063
Difference [1, 18]: −0.03
Difference [2, 19]: −0.02
Cholesterol-free [2, 11]: −0.02013
Complete [2, 12]: −0.04264

CC(C)Oc1ccc(-c2nc(-c3cccc4c3CC[C@@H]4NCCO)no2)cc1C#N [Ozanimod]
Cholesterol-free media + simvastatin (0.04 μM) [1, 3]: 1.119
Complete Media ([1]; drug in complete media): 0.9531
Difference [1, 17]: −0.17
Difference [2, 19]: −0.03
Cholesterol-free [2, 11]: 1.036
Complete [2, 12]: 1.004

Cc1cc(CC(C)CC(C)(C)C)n(O)c(=O)c1.NCCO (stereo not drawn) [Piroctone olamine]
Cholesterol-free media + simvastatin (0.04 μM) [1, 13]: 0
Complete Media [1, 14]: 0.02737
Difference [1, 15]: 0.03
Difference [2, 19]: −0.05
Cholesterol-free [2, 11]: 0.04765
Complete [2, 12]: 0.0002612

Ketotifen (fumarate)
Cholesterol-free media + simvastatin (0.04 μM) [1, 20]: 1.876
Complete Media [1, 21]: 1.552
Difference [1, 4]: −0.32
Difference [2, 10]: −0.71
Cholesterol-free [2, 22]: 1.545
Complete [2, 23]: 0.8394

Cc1ccc([C@@H]2O[C@H](CO)[C@@H](O)[C@H](O)[C@H]2O)cc1Cc1ccc(-c2ccc(F)cc2)s1 [Canagliflozin]
Cholesterol-free media + simvastatin (0.04 μM) [1, 7]: 1.109
Complete Media [1, 8]: 1.104
Difference [1, 9]: −0.01
Cholesterol-free [2, 5]: 1.159
Complete ([2]; NCI-H292 cells, complete media): 0.8206
Difference [2, 6]: −0.34

CCCC(=O)Nc1ccc(OCC(O)CNC(C)C)c(C(C)=O)c1 (stereo not drawn) [Acebutolol (hydrochloride)]
Cholesterol-free media + simvastatin (0.04 μM) [1, 24]: 1.195
Complete Media [1, 25]: 1.105
Difference [1, 17]: −0.09
Difference [2, 26]: −0.56
Cholesterol-free [2, 22]: 1.541
Complete [2, 23]: 0.9763

O=C1CCC[C@@H]2[C@H]3CCC[N+]4([O-])CCC[C@@H](CN12)[C@@H]34 (stereo partly drawn) [Oxymatrine]
Cholesterol-free media + simvastatin (0.04 μM) [1, 20]: 1.185
Complete Media [1, 21]: 0.9014
Difference [1, 17]: −0.28
Difference [2, 19]: 0.05
Cholesterol-free [2, 11]: 0.9493
Complete [2, 12]: 0.9958

CN(C)[C@@H]1C(O)=C(C(N)=O)C(=O)[C@@]2(O)C(O)=C3C(=O)c4c(O)ccc(Cl)c4[C@@](C)(O)[C@H]3C[C@@H]12 [Chlortetracycline (hydrochloride)]
Cholesterol-free media + simvastatin (0.04 μM) [1, 20]: 1.491
Complete Media [1, 21]: 1.106
Difference [1, 17]: −0.38
Cholesterol-free [2, 5]: 1.583
Complete ([2]; NCI-H292 cells, complete media): 1.205
Difference [2, 16]: −0.38

CC(=O)O[C@H]1[C@H]2O[C@]23[C@@H]2CC[C@]4(O)C[C@@H](O)CC[C@]4(C)[C@H]2CC[C@]3(C)[C@H]1c1ccc(=O)oc1 [Cinobufotalin]
Cholesterol-free media + simvastatin (0.04 μM) [1, 7]: 0.03115
Complete Media [1, 8]: 0.01046
Difference [1, 9]: −0.02
Difference [2, 10]: −0.04
Cholesterol-free [2, 11]: 0.003242
Complete [2, 12]: −0.03407

OC(Cn1cncn1)(Cn1cncn1)c1ccc(F)cc1F [Fluconazole]
Cholesterol-free media + simvastatin (0.04 μM) [1, 20]: 1.268
Complete Media [1, 21]: 0.9392
Difference [1, 17]: −0.33
Cholesterol-free [2, 5]: 1.23
Complete ([2]; NCI-H292 cells, complete media): 0.8337
Difference [2, 16]: −0.40

CCN(CC)CC(=O)Nc1c(C)cccc1C [Lidocaine]
Cholesterol-free media + simvastatin (0.04 μM) [1, 20]: 1.433
Complete Media [1, 21]: 1.088
Difference [1, 17]: −0.34
Difference [2, 26]: −0.78
Cholesterol-free [2, 22]: 1.775
Complete [2, 23]: 0.9935

CCOc1ccc2nc(SCCN3CCOCC3)[nH]c2c1 [Fabomotizole (hydrochloride)]
Cholesterol-free media + simvastatin (0.04 μM) [1, 3]: 1.167
Complete Media ([1]; drug in complete media): 0.9459
Difference [1, 17]: −0.22
Cholesterol-free [2, 5]: 1.463
Complete ([2]; NCI-H292 cells, complete media): 1.068
Difference [2, 16]: −0.39

O=C(O)c1cc(-c2ccc(F)cc2F)ccc1O [Diflunisal]
Cholesterol-free media + simvastatin (0.04 μM) [1, 7]: 0.785
Complete Media [1, 8]: 0.7827
Difference [1, 18]: 0.00
Cholesterol-free [2, 11]: 1.041
Complete [2, 12]: 1.674
Difference [2, 27]: 0.63

C[C@H]1[C@H](OC(=O)CCC(=O)O)O[C@@H]2O[C@@]3(C)CC[C@H]4[C@H](C)CC[C@@H]1[C@@]24OO3 [Artesunate]
Cholesterol-free media + simvastatin (0.04 μM) [1, 24]: 1.06
Complete Media [1, 25]: 0.9407
Difference [1, 17]: −0.12
Cholesterol-free [2, 5]: 0.9732
Complete ([2]; NCI-H292 cells, complete media): 0.63
Difference [2, 16]: −0.34

Bleomycin (hydrochloride)
Cholesterol-free media + simvastatin (0.04 μM) [1, 24]: 0.184
Complete Media [1, 25]: 0.1023
Difference [1, 4]: −0.08
Cholesterol-free [2, 11]: 0.4328
Complete [2, 12]: 0.5195
Difference [2, 6]: 0.09

CC(C)(C)c1ccc(C(=O)CCCN2CCC(OC(c3ccccc3)c3ccccc3)CC2)cc1 [Ebastine]
Cholesterol-free media + simvastatin (0.04 μM) [1, 24]: 0.2638
Complete Media [1, 25]: 1.066
Difference [1, 15]: 0.80
Difference [2, 26]: −0.60
Cholesterol-free [2, 22]: 1.238
Complete [2, 23]: 0.6382

CN(C)c1ccc(O)c2c1C[C@H]1C[C@H]3[C@H](N(C)C)C(O)=C(C(N)=O)C(=O)[C@@]3(O)C(O)=C1C2=O [Minocycline (hydrochloride)]
Cholesterol-free media + simvastatin (0.04 μM) [1, 24]: 1.589
Complete Media [1, 25]: 1.958
Difference [1, 15]: 0.37
Cholesterol-free [2, 11]: 0.8959
Complete [2, 12]: 1.177
Difference [2, 27]: 0.28

CC(CCc1ccc(O)cc1)NCCc1ccc(O)c(O)c1 (stereo not drawn) [Dobutamine (hydrochloride)]
Cholesterol-free media + simvastatin (0.04 μM) [1, 24]: 0.8343
Complete Media [1, 25]: 1.237
Difference [1, 15]: 0.40
Difference [2, 19]: 0.01
Cholesterol-free [2, 11]: 1.125
Complete [2, 12]: 1.131

C[C@]1(COc2ccc(N3CCC(Oc4ccc(OC(F)(F)F)cc4)CC3)cc2)Cn2cc([N+](=O)[O-])nc2O1 [Delamanid]
Cholesterol-free media + simvastatin (0.04 μM) [1, 7]: 1.352
Complete Media [1, 8]: 1.345
Difference [1, 18]: −0.01
Difference [2, 19]: −0.22
Cholesterol-free [2, 5]: 1.106
Complete ([2]; NCI-H292 cells, complete media): 0.8827

CNC(=C[N+](=O)[O-])NCCSCc1ccc(CN(C)C)o1 [Ranitidine (hydrochloride)]
Cholesterol-free media + simvastatin (0.04 μM) [1, 20]: 1.27
Complete Media [1, 21]: 0.8219
Difference [1, 17]: −0.45
Difference [2, 26]: −0.55
Cholesterol-free [2, 22]: 1.186
Complete [2, 23]: 0.6384

Cc1ccc(Cl)c(Nc2ccccc2C(=O)O)c1Cl [Meclofenamate (sodium)]
Cholesterol-free media + simvastatin (0.04 μM) [1, 24]: 1.009
Complete Media [1, 25]: 1.718
Difference [1, 15]: 0.71
Difference [2, 26]: −0.59
Cholesterol-free [2, 22]: 1.453
Complete [2, 23]: 0.8579

NC(=O)OC[C@H](N)Cc1ccccc1 [Solriamfetol]
Cholesterol-free media + simvastatin (0.04 μM) [1, 20]: 1.23
Complete Media [1, 21]: 0.8852
Difference [1, 4]: −0.34
Difference [2, 10]: −0.04
Cholesterol-free [2, 11]: 1.006
Complete [2, 12]: 0.9654

— patent US20250144067A1, “PERSONALIZED STARVATION THERAPY FOR CANCER” (Faeth Therapeutics, Inc., priority 2021, published 2025)
